# Measured values published in patent publication US7105517B2 (priority 2001, dated 2006).
# Where “and” joins values, the source holds several entries; their conditions need not be identical. Equal entries are not always repeated.
row,Compound,melting point
1,COc1ccc(-c2cccc(Nc3nccc(-c4sc(N)nc4-c4ccccc4)n3)c2)cc1OC,236 to 237 °C
2,Nc1nc(-c2ccccc2)c(-c2ccnc(Nc3cccc(Cl)c3)n2)s1,243 to 245 °C
3,Nc1nc(-c2ccccc2)c(-c2ccnc(Nc3cccc(CO)c3)n2)s1,214 to 215 °C
4,CN1CCN(c2nc(-c3ccccc3)c(-c3ccnc(Nc4ccccc4)n3)s2)CC1,239 to 240 °C

# Second part, the molecule after the results:
row,melting point,Compound
1,244 to 245 °C and 247 to 250 °C,Nc1nc(-c2ccccc2)c(-c2ccnc(Nc3ccccc3)n2)s1
2,243 to 245 °C,Nc1nc(-c2ccccc2)c(-c2ccnc(Nc3cccc(F)c3)n2)s1
